Experimental data published in patent publication US6737383B1, “Herbicidal oxadiazolidines” (priority 1999, dated 2004).

How the values were obtained:
blackgrass = assay: Test B pre/postemergence blackgrass; assay type: in vivo, Alopecurus myosuroides
In short: (§1)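 Response is a visual 0-to-10 score relative to untreated plants, where 0 means no effect and 10 means complete control, taken twelve to sixteen days after application. Treatments went onto soil at planting and onto foliage of 1- to 4-leaf plants, using a surfactant-containing non-phytotoxic solvent.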

surinam grass = assay: Test B pre/postemergence surinam grass; assay type: in vivo, Brachiaria decumbens
In short: as §1

sugar beet = assay: Test B pre/postemergence sugar beet; assay type: in vivo, Beta vulgaris
In short: as §1

bamyardgrass = assay: Test B flood test barnyardgrass; assay type: in vivo, Echinochloa crus-galli
In short: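 Flood test on plants grown to the 2-leaf stage; treated plants kept in greenhouse twelve to sixteen days, then visually rated against controls on a 0 (no effect) to 10 (complete control) scale.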

[1] = Postemergence, Rate 250 g/ha, scale 0 to 10, 0 no effect, 10 complete control
[2] = Postemergence, Rate 1000 g/ha, scale 0 to 10 (0 no effect, 10 complete control)
[3] = Preemergence, Rate 125 g/ha, scale 0 to 10 (0 no effect, 10 complete control)
[4] = Preemergence, Rate 250 g/ha, scale of 0 to 10 where 0 is no effect and 10 is complete control
[5] = Preemergence, Rate 500 g/ha, scale 0 (no effect) to 10 (complete control)
[6] = Rate 125 g/ha, Postemergence, scale 0 to 10, 0 no effect, 10 complete control
[7] = Rate 500 g/ha, Postemergence, 0 to 10 scale (0 no effect, 10 complete control)
[8] = Rate 1000 g/ha, Preemergence, scale 0 to 10 (0 no effect, 10 complete control)
[9] = Rate 125 g/ha, Postemergence section (flood test species), scale 0 to 10, 0 no effect, 10 complete control
[10] = Rate 500 g/ha, Postemergence section of Table B, 0 to 10 scale (0 no effect, 10 complete control)
[11] = flood test, listed under Postemergence, Rate 250 g/ha, scale 0 to 10, 0 no effect, 10 complete control

Compound | Blackgrass plant response rating (blackgrass; [1]) | Blackgrass plant response rating (blackgrass; [2]) | Plant response rating, Blackgrass (blackgrass; [3]) | Plant response rating, Blackgrass (blackgrass; [4]) | Blackgrass plant response rating (blackgrass; [5]) | Blackgrass plant response rating (blackgrass; [6]) | Blackgrass plant response rating (blackgrass; [7]) | Plant response rating, Blackgrass (blackgrass; [8]) | B. signalgrass plant response rating (surinam grass; [1]) | B. signalgrass plant response rating (surinam grass; [2]) | Plant response rating, B. signalgrass (surinam grass; [3]) | Plant response rating, B. signalgrass (surinam grass; [4]) | B. signalgrass plant response rating (surinam grass; [5]) | B. signalgrass plant response rating (surinam grass; [6]) | B. signalgrass plant response rating (surinam grass; [7]) | Plant response rating, B. signalgrass (surinam grass; [8]) | Sugarbeets plant response rating (sugar beet; [1]) | Sugarbeets plant response rating (sugar beet; [2]) | Plant response rating, Sugarbeets (sugar beet; [3]) | Plant response rating, Sugarbeets (sugar beet; [4]) | further results
CCN(CC)C(=O)n1oc(=O)n(-c2ccc(F)cc2)c1=O [Compound 3] | 0 | 3 | 0 | 0 | 0 | 0 | 0 | 0 | 0 | 0 | 0 | 0 | 0 | 0 | 0 | 0 | 0 | 0 | 0 | 0 | Sugarbeets plant response rating (sugar beet; [5]): 0; Sugarbeets plant response rating (sugar beet; [6]): 0; Plant response rating, Sugarbeets (sugar beet; [8]): 0; Barnyardgrass plant response rating (bamyardgrass; [2]): 0; Barnyardgrass plant response rating (bamyardgrass; [9]): 0; Barnyardgrass plant response rating (bamyardgrass; [10]): 0; Barnyardgrass plant response rating (bamyardgrass; [11]): 0
COc1ccc(-n2c(=O)on(C(=O)N(c3ccc(F)cc3)C(C)C)c2=O)cc1 [Compound 5] | 5 | 8 | 3 | 3 | 5 | 4 | 4 | 8 | 0 | 4 | 3 | 3 | 3 | 0 | 0 | 8 | 4 | 7 | 0 | 0 | Sugarbeets plant response rating (sugar beet; [5]): 0; Sugarbeets plant response rating (sugar beet; [6]): 3; Plant response rating, Sugarbeets (sugar beet; [8]): 0; Barnyardgrass plant response rating (bamyardgrass; [2]): 4; Barnyardgrass plant response rating (bamyardgrass; [9]): 0; Barnyardgrass plant response rating (bamyardgrass; [10]): 2; Barnyardgrass plant response rating (bamyardgrass; [11]): 0
